Laboratory results published in article PMC12196166, “Mechanistic Insight into the Enhanced Anti-Pulmonary Hypertension Efficacy of Wogonin Co-Amorphous” (Pharmaceutics, 2025).

Assays:
[1] = In vitro dissolution in distilled water (UPLC); assay type: physicochemical; conditions: 37.0 °C, 100 rpm
Description: The wogonin, physical mixture of wogonin and aloperine (Wog+Alop), and Wog-Alop with the theoretical drug content of 6.00 mg were accurately weighed and placed into 200 mL conical flasks containing 90 mL of distilled water at 37.0 °C and 100 rpm. A total of 2 mL of sample solution was withdrawn at predetermined time points (0, 1, 2, 3, 4, 5, 6, 7, 8, 9, 10, 15, 30, 45, and 60 min) and an equal volume of distilled water was immediately supplemented. The sample solutions were filtered through a 0.22 μm microporous membrane and determined by Ultra Performance Liquid Chromatography (UPLC).

[2] = Pharmacokinetic study after intragastric administration; assay type: in vivo; conditions: male, Sprague-Dawley, rat, po, rats, 5 mg/kg as wogonin, plasma
Description: Four-week-old male SPF Sprague-Dawley rats (weighing 220 ± 10 g) were purchased from Sporford Biotechnology Co., Ltd. (Beijing, China). and were randomly divided into cages (four rats per cage) and acclimatized for at least three days with free access to food and water. This study was performed with the approval of the Ethics Review Committee for Laboratory Animals of Beijing University of Chinese Medicine (approval number: BUCM-2023032307-1148) and strictly adhered to the relevant guidelines. Laboratory animal license No.: SCXK (Jing) 2019-0010; Laboratory unit use license No.: SYXK (Jing) 2020-0033.
Twenty-four SD rats were randomly divided into three groups of eight rats each. After 3 days of adaptive feeding, they were fasted (free access to water) for 12 h. On the morning of the fourth day, wogonin, Wog+Alop, and Wog-Alop were intragastrically administered at a theoretical dose of 5 mg/kg for wogonin. Plasma samples were collected into heparinized tubes from the oculi choroideae vein at 0, 5, 10, 15, 30, 45, and 60 min and 2, 4, 6, 8, 12, 24, 32, and 48 h after administration. Plasma samples were separated by centrifugation and stored at −80 °C until determination. Ultra-Performance Liquid Chromatography-Tandem Triple Quadrupole Mass Spectrometry (UPLC-QQQ-MS) multi-response monitoring (MRM) mode was used to determine plasma samples, and Masslynx 4.1 was used to calculate plasma drug concentrations at each collection time point. The plasma concentration versus time plots were drawn, and the pharmacokinetic parameters were calculated by DAS 2.1 software. The relative oral bioavailability (RB) was calculated using the following formula: […]

[3] = test system: monocrotaline (MCT)-induced PH rats; experiment: Anti-pulmonary hypertension pharmacodynamics; assay type: in vivo, Sprague-Dawley rats
Description: Four-week-old male SPF Sprague-Dawley rats (weighing 220 ± 10 g) were purchased from Sporford Biotechnology Co., Ltd. (Beijing, China). and were randomly divided into cages (four rats per cage) and acclimatized for at least three days with free access to food and water.
Anti-PH pharmacodynamics were carried out using monocrotaline (MCT)-induced PH rats. Thirty rats were randomly divided into five groups: (A) control group; (B) model group; and three treatment groups (C) Wog group; (D) Wog+Alop group; and (E) Wog-Alop group. MCT was administered by a single femoral vein injection to induce PH. All administered groups of drugs were intragastrically administered from days 1 to 21 at a theoretical dose of 5 mg/kg/day for Wog. After three weeks of administration, the rats were weighed and anesthetized with 20% urethane. The electrocardiogram and right ventricular systolic pressure (RVSP) of rats were measured. The rats were perfused, and the heart and lung tissues were completely removed. The right ventricle (RV) and left ventricle plus ventricular septum (LV + S) were accurately separated and weighted, and the right ventricular hypertrophy index (RVHI) = RV/(LV + S) × 100%, RV mass index (RVMI) = RV/body weight × 100% and lung mass index (LMI) = lung weight/body weight × 100% were calculated. […] Heart tissues were taken for H&E and Masson staining, and lung tissues were stained with resorcinol basic fuchsin and proliferating cell nuclear antigen (PCNA) immunofluorescence.

PDGF-BB-induced PASMCs [4] = experiment: Cell viability (CCK-8) assay, abnormal proliferation; assay type: cell-based, Human; conditions: 3 μM, 40 ng/mL PDGF-BB for 48 h, CCK-8, vs. model group
Description: Human PASMCs ([…], Cat. No.: CYH0707) were purchased from Wuhan Enji Life Technology Co., Ltd. (Wuhan, China) […] were cultured in Dulbecco's Modified Eagle Medium (DMEM) medium with 10% fetal bovine serum (FBS) and 1% penicillin/streptomycin (P/S), and maintained in a humidified 5% CO2 incubator at 37 °C. Prior to drug treatment, […] were subjected to serum starvation by culturing in a maintenance medium containing 0.5% FBS for 24 h to synchronize cell cycle progression. […] After 1 h, cells were stimulated with 40 ng/mL PDGF-BB for 48 h in each group except the control group. Cell viability was assessed using the Cell Counting Kit-8 (CCK-8) assay according to the manufacturer's protocol. Briefly, 10 μL of CCK-8 reagent was added to each well of pretreated PASMCs, followed by incubation at 37 °C under 5% CO2 for 2-h. The absorbance of each sample was quantified at 450 nm using a microplate reader.

PDGF-BB-induced PASMCs [5] = experiment: ROS detection (DCFH-DA probe); assay type: cell-based, Human; conditions: 3 μM, 40 ng/mL PDGF-BB for 48 h, DCFH-DA fluorescence, vs. model group
Description: Human PASMCs ([…], Cat. No.: CYH0707) were purchased from Wuhan Enji Life Technology Co., Ltd. (Wuhan, China) […] were cultured in Dulbecco's Modified Eagle Medium (DMEM) medium with 10% fetal bovine serum (FBS) and 1% penicillin/streptomycin (P/S), and maintained in a humidified 5% CO2 incubator at 37 °C. Prior to drug treatment, […] were subjected to serum starvation by culturing in a maintenance medium containing 0.5% FBS for 24 h to synchronize cell cycle progression. […] After 1 h, cells were stimulated with 40 ng/mL PDGF-BB for 48 h in each group except the control group. […] After treatment, cells were loaded with 1 μM 2',7'-dichlorodihydrofluorescein diacetate (DCFH-DA) probe for 20 min at 37 °C in the dark. Nuclei were counterstained with Hoechst 33342 Live Cells Staining Solution (1:100 dilution) for 10 min. Fluorescent imaging was performed using a laser scanning confocal microscope (Leica TCS SP8, Wetzlar, Germany) with excitation/emission settings at 488/525 nm for DCFH-DA and 350/461 nm for Hoechst 33342. ROS-associated fluorescence intensity was quantified using ImageJ 4.4 software.

PDGF-BB-induced PASMCs [6] = experiment: Measurement of oxidative stress markers (MDA, GSH, CAT, GPx kits); assay type: cell-based, Human; conditions: 3 μM, vs. model group
Description: Human PASMCs ([…], Cat. No.: CYH0707) were purchased from Wuhan Enji Life Technology Co., Ltd. (Wuhan, China) […] were cultured in Dulbecco's Modified Eagle Medium (DMEM) medium with 10% fetal bovine serum (FBS) and 1% penicillin/streptomycin (P/S), and maintained in a humidified 5% CO2 incubator at 37 °C. Prior to drug treatment, […] were subjected to serum starvation by culturing in a maintenance medium containing 0.5% FBS for 24 h to synchronize cell cycle progression. […] After 1 h, cells were stimulated with 40 ng/mL PDGF-BB for 48 h in each group except the control group. The levels of MDA and glutathione (GSH), as well as the activities of CAT and glutathione peroxidase (GPx) in cells, were measured using commercial assay kits. The treated PASMCs were collected and lysed with protein lysis buffer following the manufacturer's instructions.

[7] = intragastric 5 mg/kg/day as Wog, days 1 to 21, vs. model group

Structure (SMILES) | percentage of dissolution [1] | AUC(0-inf) ([2]; n = 8) | AUC(0-t) ([2]; n = 8) | Cmax ([2]; n = 8) | Tmax ([2]; n = 8) | MRT last ([2]; n = 8, read-out: MRT(0–t)) | MRT inf ([2]; n = 8, read-out: MRT(0–∞)) | half-life ([2]; n = 8, read-out: t1/2z (converted)) | thickening of the medial wall of small pulmonary artery vessels ([3]; 5 mg/kg/day as Wog, 21 days, resorcinol basic fuchsin staining, vs. model group) | P-wave duration [3, 7] | RVHI (right ventricular hypertrophy index) [3, 7] | RVMI (RV mass index) [3, 7] | RVSP (right ventricular systolic pressure) [3, 7] | inhibition of abnormal proliferation of PDGF-BB-induced PASMC (PDGF-BB-induced PASMCs [4]) | ROS levels (PDGF-BB-induced PASMCs [5]) | increase in MDA levels (PDGF-BB-induced PASMCs [6]) | reduction in CAT activity (PDGF-BB-induced PASMCs [6]) | reduction in GPx activity (PDGF-BB-induced PASMCs [6]) | reduction in GSH levels (PDGF-BB-induced PASMCs [6])
COc1c(O)cc(O)c2c(=O)cc(-c3ccccc3)oc12 [Wogonin] | 2.17% | 77 ± 80.6 ng·h/mL | 49.1 ± 42.1 ng·h/mL | 14.8 ± 12.2 ng/mL | 1.93 ± 3.41 h | 5.97 ± 4.79 h | 12.5 ± 17.5 h | 7.21 ± 9.97 h | inhibit the thickening | significantly reduce | not statistically significant | not statistically significant | reduced RVSP, although without statistical significance | almost no inhibitory effects | Neither Wog nor Alop alone showed notable inhibitory effects | significantly inhibited | significantly inhibited | significantly inhibited | significantly inhibited
C1=C2CCCN[C@H]2[C@@H]2C[C@H]1[C@H]1CCCCN1C2 [Alop, aloperine] |  |  |  |  |  |  |  |  |  | significantly reduce | not statistically significant | not statistically significant |  | almost no inhibitory effects | Neither Wog nor Alop alone showed notable inhibitory effects | significantly inhibited | significantly inhibited | significantly inhibited | significantly inhibited
